Assay results reported in patent publication US7902148B2, “Use of an echinocandin antifungal agent in combination with a glycopeptide antibacterial agent” (Theravance, Inc., priority 2003, dated 2011).

Columns and labels:
C. albicans ATCC 24433 = assay: Checkerboard MIC assay for FICI; format: cell-based, Candida albicans
From the text: (§1) The following assay was used to determine the minimum inhibitory concentration (MIC) and fractional inhibitory concentration index (FICI) for combinations of antifungal agents and antibacterial agents. This assay and methods for calculating FICI are well known in the art. See, for example, Eliopoulos, E. G. and R. Moellering, Jr. “Antimicrobial Combinations” in Antibiotics in Laboratory Medicine, edited by V. Lorian, 4th Ed., Williams & Wilkins, Baltimore, Md., pp. 330-396 (1996); Shalit et al., Antimicrobial Agents and Chemotherapy 47(4):1416-1418 (2003); or Afeltra et al., Antimicrobial Agents and Chemotherapy 46(10):3323-3326 (2002).
(§2) Using a checkerboard method, a 2-fold dilution 100× final concentration master plate was prepared using a 96-well U-shape microtiter plate and an appropriate solvent. In the “checkerboard” method, a microtiter plate is divided into “columns” in which each well in the column contains the same amount of an antifungal agent (Compound A) being diluted along the x-axis, and “rows” in which each well in the row contains the same amount of a glycopeptide antibacterial agent (Compound B) being diluted on the γ-axis. Also included is a row (or column) for Compound A or B alone. The dilutions used in the checkerboard are exponential (by powers of two). The result is that each well in the microtiter plate contains a unique concentration of the two compounds being tested.
(§3) A matrix 2× final concentration was performed by transferring 30 μL of 100× Compound A and Compound B into a 1,440 μL RPMI in deep wells (one deep well per drug combination). After mixing, 100 μL of 2× drug combinations were distributed into 96-well microtiter plates. Compound A was diluted from Column 1 starting at 1,600 μg/mL to Column 11 (1.6 μg/mL). Wells in Column 1 contained a final concentration (after inoculum was added) of 16 μg/mL of Compound A; wells in Column 2 contained a final concentration of 8 μg/mL of Compound A; wells in Column 3 contained a final concentration of 4 μg/mL of Compound A; etc. Compound A was not added to Column 12, so Column 12 contained only Compound B.
(§4) Compound B was diluted from row A starting at 6,400 μg/mL down to row G (100 μg/mL). Wells in Row A contained a final concentration of 64 μg/mL of Compound B; Row B contained a final concentration of 32 μg/mL of Compound B; Row C contained a final concentration of 16 μg/mL of Compound B; etc. Compound B was not added to Row H, so Row H only contained Compound A.
(§5) In most cases, MIC of the glycopeptide antibacterial compound alone was >64 μg/mL. In order to get an accurate measurement, a standard MIC assay using NCCLS protocols was performed with an extended concentration range of from 256 μg/mL to 0.25 μg/mL. […]

[1] = test system: R. miscrosporus ATCC 14050; assay: Checkerboard MIC assay for FICI; format: cell-based, Rhizopus microsporus; details: combination with caspofungin
From the text: as §1
(§6) Using a checkerboard method, a 2-fold dilution 100× final concentration master plate was prepared using a 96-well U-shape microtiter plate and an appropriate solvent. In the “checkerboard” method, a microtiter plate is divided into “columns” in which each well in the column contains the same amount of an antifungal agent (Compound A) being diluted along the x-axis, and “rows” in which each well in the row contains the same amount of a glycopeptide antibacterial agent (Compound B) being diluted on the γ-axis. Also included is a row (or column) for Compound A or B alone. The dilutions used in the checkerboard are exponential (by powers of two). […]

various strains of fungi = assay: Assay for determining MIC and FICI, summary statements over strains; format: cell-based
From the text: as §1
FICI values are typically evaluated using the following criteria:
Using a checkerboard method, a 2-fold dilution 100× final concentration master plate was prepared using a 96-well U-shape microtiter plate and an appropriate solvent. In the “checkerboard” method, a microtiter plate is divided into “columns” in which each well in the column contains the same amount of an antifungal agent (Compound A) being diluted along the x-axis, and “rows” in which each well in the row contains the same amount of a glycopeptide antibacterial agent (Compound B) being diluted on the γ-axis. […]
The calculated value for the FICI of the combined test compounds was compared to the following standards in certain embodiments: […]

A. flavus ATCC 64025 = assay: Checkerboard MIC assay for FICI; format: cell-based, Aspergillus flavus; details: combination with caspofungin
From the text: as §1, §6

C. tropicalis ATCC 750 = assay: Checkerboard MIC assay for FICI; format: cell-based, Candida tropicalis
From the text: as §1, §2, §3, §4, §5

P. boydii ATCC 38283 = assay: Checkerboard MIC assay for FICI; format: cell-based, Pseudallescheria boydii; details: combination with caspofungin
From the text: as §1, §6

G. candidum ATCC 62231 = assay: Checkerboard MIC assay for FICI; format: cell-based, Geotricium candidum; details: combination with caspofungin
From the text: as §1, §6

[2] = test system: C. parapsilosis ATCC 22019; assay: Checkerboard MIC assay for FICI; format: cell-based, Candida parapsilosis
From the text: as §1, §2, §3, §4, §5

[3] = test system: F. moniliforme ATCC 38159; assay: Checkerboard MIC assay for FICI; format: cell-based, Fusarium moniliforme; details: combination with caspofungin
From the text: as §1, §6

C. neoformans ATCC 56991 = assay: Checkerboard MIC assay for FICI; format: cell-based, Cryptococcus neoformans
From the text: as §1, §6

[4] = test system: M. circinelloides ATCC 26759; assay: Checkerboard MIC assay for FICI; format: cell-based, Mucor circinelloides; details: combination with caspofungin
From the text: as §1, §6

A. terreus ATCC 46941 = assay: Checkerboard MIC assay for FICI; format: cell-based; details: combination with caspofungin
From the text: as §1, §6

[5] = test system: S. prolificans ATCC 200543; assay: Checkerboard MIC assay for FICI; format: cell-based; details: combination with caspofungin
From the text: as §1, §6

C. glabrata ATCC 200918 = assay: Checkerboard MIC assay for FICI; format: cell-based, Candida glabrata
From the text: as §1, §2, §3, §4, §5

A. fumigatus ATCC 14110 = assay: Checkerboard MIC assay for FICI; format: cell-based, Aspergillus fumigatus; details: combination with caspofungin
From the text: as §1, §6

C. krusei ATCC 32672 = assay: Checkerboard MIC assay for FICI; format: cell-based, Candida krusei
From the text: as §1, §2, §3, §4, §5

Structure (SMILES) | FICI (C. albicans ATCC 24433; combination with caspofungin) | FICI (C. tropicalis ATCC 750; combination with caspofungin) | FICI ([2]; combination with caspofungin) | FICI (C. glabrata ATCC 200918; combination with caspofungin) | FICI (C. krusei ATCC 32672; combination with caspofungin) | FICI (C. albicans ATCC 24433; combination with Compound 1) | FICI (C. tropicalis ATCC 750; combination with Compound 1) | FICI ([2]; combination with Compound 1) | FICI (C. glabrata ATCC 200918; combination with Compound 1) | FICI (C. krusei ATCC 32672; combination with Compound 1) | other results
CCCCCCCCCCNCCN[C@@]1(C)C[C@H](O[C@H]2[C@H](Oc3c4cc5cc3Oc3ccc(cc3Cl)[C@@H](O)[C@@H](NC(=O)[C@@H](CC(C)C)NC)C(=O)N[C@@H](CC(N)=O)C(=O)N[C@H]5C(=O)N[C@H]3C(=O)N[C@H](C(=O)N[C@H](C(=O)O)c5cc(O)c(CNCP(=O)(O)O)c(O)c5-c5cc3ccc5O)[C@H](O)c3ccc(c(Cl)c3)O4)O[C@H](CO)[C@@H](O)[C@@H]2O)O[C@@H](C)[C@H]1O [Compound 1, telavancin] | 0.27 | 0.26 | 0.38 | 0.28 | 0.31 | – | – | – | – | – | FICI [1]: 2; effect of the combination with caspofungin (various strains of fungi; all yeast strains tested, except C. neoformans, FICI ≦ 0.5 = synergistic): synergistic; FICI (A. flavus ATCC 64025): 0.16; FICI (P. boydii ATCC 38283): 0.31; FICI (G. candidum ATCC 62231): 0.31; FICI [3]: 2; FICI (C. neoformans ATCC 56991; combination with caspofungin, C. neoformans ATCC 56991, checkerboard): 0.75; FICI [4]: 2; FICI (A. terreus ATCC 46941): 0.31; FICI [5]: 1.25; FICI (A. fumigatus ATCC 14110): 0.28
OC(Cn1cncn1)(Cn1cncn1)c1ccc(F)cc1F [Fluconazole] | – | – | – | – | – | 2.00 | 2.00 | 2.00 | 2.00 | 2.00 | –
Clc1ccc(COC(Cn2ccnc2)c2ccc(Cl)cc2Cl)c(Cl)c1 (stereo not drawn) [Miconazole] | – | – | – | – | – | 2.00 | 2.00 | 2.00 | – | – | –
CN[C@H](CC(C)C)C(=O)N[C@H]1C(=O)N[C@@H](CC(N)=O)C(=O)N[C@H]2C(=O)N[C@H]3C(=O)N[C@H](C(=O)N[C@H](C(=O)O)c4cc(O)cc(O)c4-c4cc3ccc4O)[C@H](O)c3ccc(c(Cl)c3)Oc3cc2cc(c3O[C@@H]2O[C@H](CO)[C@@H](O)[C@H](O)[C@H]2O[C@H]2C[C@](C)(N)[C@H](O)[C@H](C)O2)Oc2ccc(cc2Cl)[C@H]1O [Vancomycin] | 2.00 | 2.00 | 2.00 | 2.00 | 2.00 | – | – | – | – | – | effect of the combination with caspofungin (various strains of fungi; strains of Table 1, FICI criteria of b187): not synergistic or additive
C[C@@H](c1ncncc1F)[C@](O)(Cn1cncn1)c1ccc(F)cc1F [Voriconazole, voriconazole] | – | – | – | – | – | – | – | – | 1.13 | 1.13 | –
CC[C@H](C)C[C@H](C)CCCCCCCCC(=O)N[C@H]1C[C@@H](O)[C@@H](NCCN)NC(=O)[C@@H]2[C@@H](O)CCN2C(=O)[C@H]([C@H](O)CCN)NC(=O)[C@H]([C@H](O)[C@@H](O)c2ccc(O)cc2)NC(=O)[C@@H]2C[C@@H](O)CN2C(=O)[C@H]([C@@H](C)O)NC1=O [caspofungin] | – | – | – | – | – | – | – | – | – | – | activity of caspofungin against C. neoformans (C. neoformans ATCC 56991; caspofungin alone): no activity
